Source: patent US10703764B2, “Benzopiperazine compositions as BET bromodomain inhibitors” (FORMA Therapeutics, Inc., priority 2013, dated 2020)

Tests used:
[1] = molecular target: T1, BRD4 BD1 (Homo sapiens, UniProt O60885); experiment: AlphaScreen binding assay, BRD4 Bromodomain 1
T1 construct: made in house
Outline: (§1)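 Compound dilution series were mixed with His-tagged BRD4 bromodomain and biotinylated tetra-acetylated H4 (1-21) peptide at pH 7.3 (BD1 and peptide at 50 nM, BD2 and peptide at 100 nM). Donor and acceptor beads were then added, and plates were equilibrated at least 1 h before reading. IC50 values were fitted with a four-parameter logistic model.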

[2] = tested on: MV4-11 cells; experiment: Oncology cell growth assay (3-day proliferation, CellTiter-Glo); assay type: cell-based; settings: Homo sapiens, MV4-11, 72 h, AML cell line MV4-11, 72 hours, compounds grouped by IC50 range, read-out: MV4-11 IC50 (inhibition of proliferation, gIC50)
Outline: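 MV4-11 AML cells (RPMI 1640, 10% FBS) plated at 3000 cells/well and exposed 72 h to compound at final 10 to 0.0045 μM (3-fold series). Viability read by CellTiter-Glo luminescence; gIC50 from four-parameter logistic fit between DMSO control and no-cell background.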

[3] = molecular target: T2, BRD4 BD2 (Homo sapiens, UniProt O60885); experiment: AlphaScreen binding assay, BRD4 Bromodomain 2
T2 construct: made in house
Outline: as §1

| Compound | IC50 [1] [µM] | IC50 [2] [µM] | IC50 [3] [µM] |
| --- | --- | --- | --- |
| CC(=O)N1c2ccc(-c3ccc(N4CCCS4(=O)=O)cc3)cc2N(C(=O)Oc2ccc(F)cc2)C[C@@H]1C [Example I-1021] | 0.1 to 1 | < 0.1 | 0.05 to 0.5 |
| COC(=O)N1c2ccc(-c3cnn(CC(C)(C)O)c3)cc2N(C(=O)Oc2ccc(F)cc2)C[C@@H]1C [Example I-1023] | 0.1 to 1 | > 0.5 | < 0.05 |
| COC(=O)N1c2ccc(-c3cnn(C(C)(C)CO)c3)cc2N(C(=O)Oc2ccc(F)cc2)C[C@@H]1C [Example I-1024] | 0.1 to 1 | 0.1 to 0.5 | < 0.05 |
| COC(=O)N1c2ccc(-c3cnn(CCC#N)c3)cc2N(C(=O)Oc2ccc(F)cc2)C[C@@H]1C [Example I-1025] | 0.1 to 1 | > 0.5 | < 0.05 |
| CC(=O)N1c2ccc(-c3ccc4c(c3)CCN4S(C)(=O)=O)cc2N(C(=O)Oc2ccc(F)cc2)C[C@@H]1C [Example I-1026] | 0.1 to 1 | 0.1 to 0.5 | 0.05 to 0.5 |
| CCS(=O)(=O)c1ccc(-c2ccc3c(c2)N(C(=O)C2CC2)C[C@H](C)N3C(C)=O)cc1 [Example I-1027] | 1 to 10 | 0.1 to 0.5 | 0.05 to 0.5 |
| CCS(=O)(=O)c1ccc(-c2ccc3c(c2)N(C(=O)C2CCC2)C[C@H](C)N3C(C)=O)cc1 [Example I-1028] | 1 to 10 | > 0.5 | 0.05 to 0.5 |
| CCOC(=O)N1C[C@H](C)N(C(C)=O)c2ccc(-c3ccc(S(=O)(=O)CC)cc3)cc21 [Example I-1029] | 1 to 10 | 0.1 to 0.5 | 0.05 to 0.5 |
| CCS(=O)(=O)c1ccc(-c2ccc3c(c2)N(C(=O)OC(C)C)C[C@H](C)N3C(C)=O)cc1 [Example I-1030] | 0.1 to 1 | 0.1 to 0.5 | 0.05 to 0.5 |
| CC(=O)N1c2ccc(-c3ccc(S(=O)(=O)C4CC4)cc3)cc2N(C(=O)C2CC2)C[C@@H]1C [Example I-1031] | 1 to 10 | 0.1 to 0.5 | 0.05 to 0.5 |
| CC(=O)N1c2ccc(-c3ccc(S(=O)(=O)C4CC4)cc3)cc2N(C(=O)C2CCC2)C[C@@H]1C [Example I-1032] | 1 to 10 | 0.1 to 0.5 | 0.05 to 0.5 |
| CCOC(=O)N1C[C@H](C)N(C(C)=O)c2ccc(-c3ccc(S(=O)(=O)C4CC4)cc3)cc21 [Example I-1033] | 0.1 to 1 | 0.1 to 0.5 | 0.05 to 0.5 |
| CC(=O)N1c2ccc(-c3ccc(S(=O)(=O)C4CC4)cc3)cc2N(C(=O)OC(C)C)C[C@@H]1C [Example I-1034] | 0.1 to 1 | 0.1 to 0.5 | 0.05 to 0.5 |
| CC(=O)N1c2ccc(-c3ccc(S(=O)(=O)NCCO)cc3)cc2N(C(=O)C2CC2)C[C@@H]1C [Example I-1035] | 1 to 10 | > 0.5 | 0.05 to 0.5 |
| CC(=O)N1c2ccc(-c3ccc(S(=O)(=O)NCCO)cc3)cc2N(C(=O)C2CCC2)C[C@@H]1C [Example I-1036] | 1 to 10 | 0.1 to 0.5 | 0.05 to 0.5 |
| CCOC(=O)N1C[C@H](C)N(C(C)=O)c2ccc(-c3ccc(S(=O)(=O)NCCO)cc3)cc21 [Example I-1037] | 1 to 10 | 0.1 to 0.5 | 0.05 to 0.5 |
| CC(=O)N1c2ccc(-c3ccc(S(=O)(=O)NCCO)cc3)cc2N(C(=O)OC(C)C)C[C@@H]1C [Example I-1038] | 0.1 to 1 | 0.1 to 0.5 | 0.05 to 0.5 |
| CC(=O)N1c2ccc(-c3cccc(S(N)(=O)=O)c3)cc2N(C(=O)C2CC2)C[C@@H]1C [Example I-1039] | 1 to 10 | 0.1 to 0.5 | < 0.05 |
| CC(=O)N1c2ccc(-c3cccc(S(N)(=O)=O)c3)cc2N(C(=O)C2CCC2)C[C@@H]1C [Example I-1040] | 1 to 10 | 0.1 to 0.5 | < 0.05 |
| CCOC(=O)N1C[C@H](C)N(C(C)=O)c2ccc(-c3cccc(S(N)(=O)=O)c3)cc21 [Example I-1041] | 1 to 10 | 0.1 to 0.5 | 0.05 to 0.5 |

Other lines, results leading:

| IC50 [1] [µM] | IC50 [2] [µM] | IC50 [3] [µM] | Compound |
| --- | --- | --- | --- |
| 1 to 10 | 0.1 to 0.5 | 0.05 to 0.5 | CC(=O)N1c2ccc(-c3cccc(S(N)(=O)=O)c3)cc2N(C(=O)OC(C)C)C[C@@H]1C [Example I-1042] |
| 1 to 10 | > 0.5 | 0.05 to 0.5 | CC(=O)N1c2ccc(-c3cccc(NS(C)(=O)=O)c3)cc2N(C(=O)C2CC2)C[C@@H]1C [Example I-1043] |
| 1 to 10 | > 0.5 | 0.05 to 0.5 | CC(=O)N1c2ccc(-c3cccc(NS(C)(=O)=O)c3)cc2N(C(=O)C2CCC2)C[C@@H]1C [Example I-1044] |
| 1 to 10 | > 0.5 | 0.05 to 0.5 | CCOC(=O)N1C[C@H](C)N(C(C)=O)c2ccc(-c3cccc(NS(C)(=O)=O)c3)cc21 [Example I-1045] |
| 1 to 10 | > 0.5 | 0.05 to 0.5 | CC(=O)N1c2ccc(-c3cccc(S(=O)(=O)N(C)C)c3)cc2N(C(=O)C2CC2)C[C@@H]1C [Example I-1046] |
| 1 to 10 | > 0.5 | 0.05 to 0.5 | CC(=O)N1c2ccc(-c3cccc(S(=O)(=O)N(C)C)c3)cc2N(C(=O)C2CCC2)C[C@@H]1C [Example I-1047] |
| 1 to 10 | > 0.5 | 0.05 to 0.5 | CCOC(=O)N1C[C@H](C)N(C(C)=O)c2ccc(-c3cccc(S(=O)(=O)N(C)C)c3)cc21 [Example I-1048] |
| 1 to 10 | 0.1 to 0.5 | 0.05 to 0.5 | CC(=O)N1c2ccc(-c3cccc(S(=O)(=O)N(C)C)c3)cc2N(C(=O)OC(C)C)C[C@@H]1C [Example I-1049] |
| 1 to 10 | > 0.5 | 0.05 to 0.5 | CC(=O)N1c2ccc(-c3cccc(S(C)(=O)=O)c3)cc2N(C(=O)C2CC2)C[C@@H]1C [Example I-1050] |
| 1 to 10 | > 0.5 | 0.05 to 0.5 | CC(=O)N1c2ccc(-c3cccc(S(C)(=O)=O)c3)cc2N(C(=O)C2CCC2)C[C@@H]1C [Example I-1051] |
| 1 to 10 | > 0.5 | 0.05 to 0.5 | CCOC(=O)N1C[C@H](C)N(C(C)=O)c2ccc(-c3cccc(S(C)(=O)=O)c3)cc21 [Example I-1052] |
| 1 to 10 | 0.1 to 0.5 | 0.05 to 0.5 | CC(=O)N1c2ccc(-c3cccc(S(C)(=O)=O)c3)cc2N(C(=O)OC(C)C)C[C@@H]1C [Example I-1053] |
| 1 to 10 | 0.1 to 0.5 | 0.05 to 0.5 | CCS(=O)(=O)Nc1cccc(-c2ccc3c(c2)N(C(=O)C2CC2)C[C@H](C)N3C(C)=O)c1 [Example I-1054] |
| 1 to 10 | > 0.5 | 0.05 to 0.5 | CCS(=O)(=O)Nc1cccc(-c2ccc3c(c2)N(C(=O)C2CCC2)C[C@H](C)N3C(C)=O)c1 [Example I-1055] |
| 1 to 10 | > 0.5 | 0.05 to 0.5 | CCOC(=O)N1C[C@H](C)N(C(C)=O)c2ccc(-c3cccc(NS(=O)(=O)CC)c3)cc21 [Example I-1056] |
| 0.1 to 1 | 0.1 to 0.5 | 0.05 to 0.5 | CCS(=O)(=O)Nc1cccc(-c2ccc3c(c2)N(C(=O)OC(C)C)C[C@H](C)N3C(C)=O)c1 [Example I-1057] |
| 1 to 10 | 0.1 to 0.5 | 0.05 to 0.5 | CC(=O)N1c2ccc(-c3ccc(N4CCOCC4)cc3)cc2N(C(=O)C2CC2)C[C@@H]1C [Example I-1058] |
